Assay: Reactivity of linker compounds with glutathione
Details: pH=7, RT
Procedure: Relative reactivities of the compounds were evaluated towards the small thiol containing peptide glutathione (pH=7, RT). […] Without wishing to be bound by any particular theory, the inventors speculate that the difference in reactivity and stability of the ortho and meta compounds may be attributed to differences in the 3D structures of each compound. Methyl 3,5-bis(2-chloroacetamido)benzoate (1) is predicted to have a planar conformation. Thus, steric hindrance could slow the backside attack of thiolate at the carbon attached to halogen (through an SN2 mechanism). This might explain the greater reactivity of ortho compounds like methyl 3,4-bis(2-chloroacetamido)benzoate (4). Compound (4) is not planar and might afford a more accessible carbon for backside attack.
The reactivity of the linker compounds of the present invention was tested by reaction with glutathione. The following representative reactions are described. Analogous reactions were performed with amide functionalised linker compounds.
The inventors compared the reactivity of various linker compounds of the invention by determining the percentage remaining of the bis-haloacetamide derivatives 14-17 in the presence of glutathione (2.2 equiv.) in aqueous phosphate buffer (100 mM, pH 7.5).

Which “relative reactivity towards glutathione (reaction rate)” value does the source give for `COC(=O)c1ccc(NC(=O)CCl)c(NC(=O)CCl)c1` [Compound 4, methyl 3,4-bis(2-chloroacetamido)benzoate] here?
Its value is “react significantly faster than the 3,5-bis-Cl compound (1)”.

— patent publication US20220249687A1, “BIS(2-HALOACETAMIDO)-COMPOUNDS FOR USE AS LINKING AGENTS AND RESULTANT PRODUCTS WHICH COMPRISE ANTIBODIES, HALF-ANTIBODIES AND ANTIBODY FRAGMENTS” (THE UNIVERSITY OF BATH, priority 2019, published 2022)
